# Test results as given in patent US5336684A, “Oxidation products of cephalomannine” (Hauser Chemical Research, Inc., priority 1993, dated 1994).
# Where “and” joins values, the source holds several entries; their conditions need not be identical. Identical values can stand only once. Like-named read-outs stand apart in the source and are kept apart here.
# Key:
# [1] = system: Tubulin; experiment: Tubulin Assembly; assay type: biochemical, bovine; settings: for Tubulin Assembly ED50/ED50 Taxol: ratio to taxol, <1 indicates greater activity than taxol; for Tubulin Assembly ED50 (concentration which reduces the supernatant protein concentration by 50%): tubulin 1 mg/ml, 37° C., 15 minutes, PEM buffer pH 6.9
# Text: (§1) Tubulin binding and cytotoxicity data for cephalomannine and the synthetic derivatives described herein are included for comparison. The tubulin testing was done exactly as described by Himes (Georg, G. I., et al., "Synthesis of Biologically Active Taxol Analogues with Modified Phenylisoserine Side Chains", J. Med. Chem. Vol 35:4230, (1992)), incorporated herein by reference. Taxol has been included in Table 1 for reference. […] A number less than 1 in these columns indicates greater activity than taxol. A number greater than 1 in these columns indicates lower activity than taxol. The error in the tests appears to be ±10-20%. […] These tests have been used and relied upon by experimentalists in this field to determine the potential efficacy of a taxol derivative for the treatment of cancer.
# Tubulin free of microtubule-associated proteins was purified from bovine brain as previously described (Algaier, J., Himes, R. H., "The Effect of Dimethyl Sulfoxide on the Kinetics of Tubulin Assembly" Biochim. Biophys. Acta, Vol 954, pp 235-243, 1988). The assembly reaction was done at 37° C. in PEM buffer (0.1M Pipes, pH 6.9, 1 mM EGTA, and 1 mM MgSO4) at a protein concentration of 1 mg/ml (10 μM) in the presence of taxol or taxol analogues and 0.5 mM GTP. The reaction was monitored by the increase in the apparent absorbance at 350 nm.
# ^b Tubulin at 1 mg/ml was incubated with various concentrations of th
# compounds at 37° C. for 15 minutes in 0.5 ml of PEM buffer (0.1 M
# Pipes, 1 mM EGTA, 1 mM MgSO4, pH 6.9). Samples were centrifuged and
# the protein concentration on the supernatant was determined.
# ^d The concentration in ng/ml which reduces the supernatant protein
# [2] = system: B16 Melanoma cells; experiment: cells; assay type: cell-based; settings: for IC50: Mus musculus; for B16 Proliferation ED50/ED50 Taxol: ratio to taxol, <1 indicates greater activity than taxol
# Text: as §1
# Cells were seeded in 24-well plates at 7.5×10^4 cells/well and grown in Dulbecco's modified minimal essential medium (MEM) containing 10% bovine calf serum at 37° C. for 24 hours in a 97% humidified atmosphere of 5.5% CO2. The medium was then replaced with fresh medium containing taxol or its derivatives and dissolved in DMSO in concentrations ranging from 7.5×10^-9 M to 1×10^-7 M for taxol and other derivatives. The final concentration of DMSO in the cell medium was 0.5% or less. […] After 40 hours, the cells were released by trypsinization and counted in a Coulter counter.
# ^c B16 Melanoma cells were incubated with various concentrations of
# the compounds for about 40h at 37° C.
# ^e The concentration in ng/ml which reduces the number of cells by 50
# [3] = system: tubulin; settings: Schiff et al. 1979; cited from earlier work
# [4] = system: cell; settings: when delivered to the cell; cited from earlier work
# [5] = system: tubulin; settings: compared with taxol, cited from earlier work
# [6] = system: mouse macrophage-like J774.2 cells; settings: compared with taxol; cited from earlier work
# [7] = system: P388 murine leukemia cells; settings: compared with taxol; cited from earlier work
# [8] = system: taxol resistant tumor cells; settings: compared with taxol; cited from earlier work
# [9] = B16, 40 h, B16 melanoma cells, about 40h at 37° C., read-out: B16 Proliferation ED50 (concentration which reduces the number of cells by 50% compared to a control)
Structure (SMILES),Tubulin Assembly ED50/ED50 Taxol [1],"IC50 [2, 9] [mg/L]",B16 Proliferation ED50/ED50 Taxol [2],Tubulin Assembly ED50 (concentration which reduces the supernatant protein concentration by 50%) [1] [mg/L],further results
"CC(=O)O[C@H]1C(=O)[C@@]2(C)[C@H]([C@H](OC(=O)c3ccccc3)[C@]3(O)C[C@H](OC(=O)[C@H](O)[C@@H](NC(=O)c4ccccc4)c4ccccc4)C(C)=C1C3(C)C)[C@]1(OC(C)=O)CO[C@@H]1C[C@@H]2O [Compound 1, taxol, reference compound]",1.26,0.0214,0.95,–,"Tubulin Assembly ED50/ED50 Taxol ([1]; listed as taxol): approximately 1; ED50 for taxol in the assembly assay ([1]; taxol reference value for the ratios (footnotes g, h, i), 15 min): 0.854 mg/L and 0.97 mg/L and 0.85 mg/L; IC50 ([2]; B16, 40 h, taxol reference value for the ratios (footnotes g, h, i), read-out: ED50 for taxol in the B16 assay): 0.0225 mg/L; ED50 for taxol in the B16 assay ([2]; taxol reference value for the ratios (footnotes g, h, i), 2400 min): 0.0227 mg/L; tubulin binding [3]: significant tubulin binding; cytotoxic activity [4]: cytotoxic activity"
"CC(=O)O[C@@]12CO[C@@H]1C[C@H](O)[C@@]1(C)C(=O)[C@H](O)C3=C(C)[C@@H](OC(=O)[C@H](O)[C@@H](NC(=O)OC(C)(C)C)c4ccccc4)C[C@@](O)([C@@H](OC(=O)c4ccccc4)[C@H]21)C3(C)C [Compound 2, taxotere]",–,–,–,–,"activity as a promoter of tubulin polymerization vs taxol [5]: slightly more active; in vitro tubulin binding activity of taxotere ([5]; in vitro): enhanced in vitro tubulin binding activity; potency as an inhibitor of replication vs taxol, J774.2 cells [6]: 1.5 fold; potency as an inhibitor of replication vs taxol, P388 cells [7]: 1.5 fold; potency in taxol resistant tumor cells vs taxol [8]: at least fivefold more potent"
"CC(=O)O[C@H]1C(=O)[C@]2(C)[C@@H](OC(C)=O)C[C@H]3OC[C@@]3(OC(C)=O)[C@H]2[C@H](OC(=O)c2ccccc2)[C@]2(O)C[C@H](OC(=O)[C@H](OC(C)=O)[C@@H](NC(=O)C(C)=O)c3ccccc3)C(C)=C1C2(C)C [Compound 6, 2',7-bis(acetyl)-α-ketoamide]",> 10,> 0.854,> 38,> 8.54,–
"CC(=O)O[C@H]1C(=O)[C@@]2(C)[C@H]([C@H](OC(=O)c3ccccc3)[C@]3(O)C[C@H](OC(=O)[C@H](OC(C)=O)[C@@H](NC(=O)C(C)=O)c4ccccc4)C(C)=C1C3(C)C)[C@]1(OC(C)=O)CO[C@@H]1C[C@@H]2O [Compound 5, 240 -Acetyl-α-ketoamide]",> 10,–,> 38,> 8.54,"IC50 ([2]; B16 melanoma cells, about 40h at 37° C., read-out: B16 Proliferation ED50 (concentration which reduces the number of cells by 50% compared to a control)): > 0.854 mg/L"
"C/C=C(\C)C(=O)N[C@@H](c1ccccc1)[C@@H](O)C(=O)O[C@H]1C[C@@]2(O)[C@@H](OC(=O)c3ccccc3)[C@@H]3[C@]4(OC(C)=O)CO[C@@H]4C[C@H](O)[C@@]3(C)C(=O)[C@H](OC(C)=O)C(=C1C)C2(C)C [Compound 3, cephalomannine]",0.82,–,1.49,–,"IC50 ([2]; B16, 40 h, read-out: B16 Proliferation ED50 (concentration which reduces the number of cells by 50% compared to a control)): 0.0335 mg/L"
CC(=O)O[C@H]1C(=O)[C@@]2(C)[C@H]([C@H](OC(=O)c3ccccc3)[C@]3(O)C[C@H](OC(=O)[C@H](O)[C@@H](NC(=O)C(C)=O)c4ccccc4)C(C)=C1C3(C)C)[C@]1(OC(C)=O)CO[C@@H]1C[C@@H]2O [Compound 4ab],1.46,0.0171,0.75,1.24,activity in the in vitro tubulin assembly test relative to taxol ([1]; compared to taxol): comparable to or superior to taxol; tubulin binding activity ([1]; in vitro testing): good; activity in the B16 Proliferation test relative to taxol ([2]; compared to taxol): comparable to or superior to taxol; cytotoxicity activity ([2]; in vitro testing): good
"CC(=O)O[C@H]1C(=O)[C@@]2(C)[C@H]([C@H](OC(=O)c3ccccc3)[C@]3(O)C[C@H](OC(=O)[C@H](O)[C@@H](NC(=O)C(C)(O)C(C)O)c4ccccc4)C(C)=C1C3(C)C)[C@]1(OC(C)=O)CO[C@@H]1C[C@@H]2O (some centres unmarked) [Compound 8, Cephalomannine diol]",3.4,> 0.854,> 38,3.3,–
"CC[Si](CC)(CC)O[C@H]1C[C@H]2OC[C@@]2(OC(C)=O)[C@H]2[C@H](OC(=O)c3ccccc3)[C@]3(O)C[C@H](OC(=O)[C@H](O[Si](CC)(CC)CC)[C@@H](NC(=O)C(C)=O)c4ccccc4)C(C)=C([C@@H](OC(C)=O)C(=O)[C@]12C)C3(C)C [Compound 7, 2',7-Bis(triethylsilyl)-α-ketoamide]",> 10,> 8.54,> 380,> 8.54,–
